Reference: patent US9701651B2, “Methods of treating an overweight or obese subject” (Zafgen, Inc., priority 2008, dated 2017)
Entries after “also recorded” stand apart in the source; their conditions may differ.

system: DIO mice; test: Weight loss study in diet-induced obese mice (oral administration); format: in vivo, C57BL/6NTac mice; conditions: 1.0 mg/kg orally in 10% gelucire in deionised water, once a day for 7 days; mice on 60% fat diet; over the course of the 8 days; compared with vehicle group
Protocol: A weight loss study was conducted in obese mice. The mice in this study were not genetically obese, but prior to and during the study, obesity was induced by a high-fat diet. Twelve week-old C57BL/6NTac mice, maintained on a 60% fat diet prior to and during the study, were separated into seven groups, eight animals per group. Average body weight of the mice was approximately 47 g at the start of the study.
Each of […] groups was orally administered 1.0 mg/kg of a compound (fumagillin and compounds B. C, D, E, F and G), in 10% gelucire in deionised water. Compounds B-G are as follows:
Each of these six groups was administered a different compound. One group was orally administered fumagillin at 1.0 mg/kg (ZGN-201) in 10% gelucire in deionised water, and one group was administered ([…] in deionised water(vehicle). Mice received administrations once a day for 7 days.
(Data analyzed by ANCOVA with body weight on Day 1 as covariate followed by multiple tests against vehicle group: *p<0.05; **p<0.01, ***p<0.001.)

Structure (SMILES)	effect on body weight (weight loss)
CO[C@@H]1[C@H](OC(=O)N[C@@H](C(N)=O)C(C)C)CC[C@]2(CO2)[C@H]1[C@@]1(C)O[C@@H]1CC=C(C)C [B]	lost weight
CO[C@@H]1[C@H](OC(=O)NCCC2CCCN2C)CC[C@]2(CO2)[C@H]1[C@@]1(C)O[C@@H]1CC=C(C)C (some centres unmarked) [C]	lost weight; also recorded: losing the most weight of these four groups
CO[C@@H]1[C@H](OC(=O)N[C@@H](C(=O)NCCC2CCCN2C)C(C)C)CC[C@]2(CO2)[C@H]1[C@@]1(C)O[C@@H]1CC=C(C)C (some centres unmarked) [D]	lost weight
CO[C@@H]1[C@H](OC(=O)N[C@@H](C(=O)NCCN2CCCC2)C(C)C)CC[C@]2(CO2)[C@H]1[C@@]1(C)O[C@@H]1CC=C(C)C [E]	lost weight
CO[C@@H]1[C@H](OC(=O)/C=C/C=C/C=C/C=C/C(=O)O)CC[C@]2(CO2)[C@H]1[C@@]1(C)O[C@@H]1CC=C(C)C [fumagillin, reference compound]	lost the most weight
